Data taken from patent US20200215153A1, “CANCER TREATMENT AND/OR PREVENTION THROUGH REGULATION OF UBIQUITINATION” (Academia Sinica, priority 2018, published 2020).
Peptide text beside a SMILES is read from it. * marks the point of attachment. Cbz = O=C(OCc1ccccc1)*

Assays:
Assay type in all cases: cell-based
[1] = system: TNBC cells (Hs578T, MDA-MB157, MDA-MB468); assay: MTT assay for viability of TNBC cells transfected with BIKDD and treated with IRE1α inhibitor; settings: combined with BIKDD
Procedure: FIG. 7. […] (a, c) MTT assay for the viability of indicated TNBC cells transfected with […] CMV-BIKDD (a) or VISA-BIKDD (c) and treated with 10 or 100 μM STF-083010 for 48 h. CI values are indicated. (b) Western blot analysis of cleaved PARP in indicated TNBC cells transfected with CMV-BIKDD and treated with 100 μM STF-083010 for 36 h. […] Tumor volume were measured at indicated days and plotted. Data are mean±s.d., *P<0.05; ***P<0.001 by two-way ANOVA with Turkey's post test, n=5. Tumors were surgically removed at day 49 and their sizes are shown on the right. (e) Mice orthotopically implanted with Hs578T cells and treated with VISA-BIKDD lipid nanoparticle together with STF-083010 or DMSO starting at day 28 after tumor cell implantation (see Materials and Methods). Tumor volume were measured at indicated days and plotted. Data are mean±s.d., ***P<0.001 by two-way ANOVA with Turkey's post test, n=5. Tumors were surgically removed at day 66 and their sizes are shown on the right.
MDA-MB157 and MDA-MB 468 cells were seeded at a density of 5×10^3 cells and Hs578T cells were at 2×10^3 cells in 96-well plates. Cells were transfected with BIKDD. In the next day, cells were treated with IRE1α inhibitor or DMSO for 48 h and then with 0.4 mg/ml methylthiazolyldiphenyltetrazolium bromide (MTT) (Sigma) for 2 h. Cells were dissolved in DMSO, followed by absorbance measurement at 590 nm. The combination index (CI) was calculated using the equation: CI=CA/IC50A+CB/IC50B. CA and CB represent the concentrations of the two agents for combined treatment. IC50A and IC50B are the IC50 values for each single treatment, which were determined by treating cells with various dosages of each agent followed by MTT assay. (CI<1) indicates a synergistic effect, (CI>1) corresponds to an antagonistic effect, and (CI=1) represents an additive effect.

ASB11 mRNA [2] = assay: RT-qPCR analysis of ASB11 mRNA expression in HCT116 cells treated with genotoxic agents; settings: p53-proficient HCT116 cells, 24 h; FIG. 5a
Procedure: (§1) FIG. 5. […] (a) RT-qPCR analysis of ASB11 mRNA expression in indicated HCT116 cells treated with indicated dosages of doxorubicin or 5-FU for 24 h. […] (b) Western blot analysis of BIK and ASB11 expression in indicated HCT116 cells treated as in (a). (c) HCT116 p53^+/+ cells stably expressing control or ASB11 shRNA were treated with 10 μM 5-FU for 24 h and then with cycloheximide for indicated time points. Cells were lysed for Western blot analysis of BIK expression and the relative amounts of BIK are indicated on the bottom. The expression levels of ASB11 and BIK in the stable lines are shown on the bottom panel. (d) Western blot analysis of IRE1α expression and RT-qPCR analysis of XBP1 mRNA splicing in indicated HCT116 cells treated with 3 μg/ml doxorubicin or 10 μM 5-FU for 24 h. (e) RT-qPCR analysis of ASB11 and XBPls mRNA expression in HCT116 cells transfected with XBP1s and/or treated with 3 μg/ml doxorubicin for 16 h. […] (f) Analysis of BIK ubiquitination in HCT116 cells transfected with indicated constructs and/or treated with 3 μg/ml doxorubicin for 16 h. Total mRNA was extracted from cells using TRIZOL reagent (Invitrogen), and equal amounts of RNA were reverse transcribed to cDNA using the iScript™ cDNA Synthesis Kit (Bio-Rad). Quantitative real-time PCR was performed using the Power SYBR Green PCR Master kit (Applied Biosystems). […]

ASB11 [3] = assay: Western blot analysis of ASB11 expression in HCT116 cells; settings: p53-dependent manner, FIG. 5b
Procedure: (§2) FIG. 5. […] (a) RT-qPCR analysis of ASB11 mRNA expression in indicated HCT116 cells treated with indicated dosages of doxorubicin or 5-FU for 24 h. […] (b) Western blot analysis of BIK and ASB11 expression in indicated HCT116 cells treated as in (a). (c) HCT116 p53^+/+ cells stably expressing control or ASB11 shRNA were treated with 10 μM 5-FU for 24 h and then with cycloheximide for indicated time points. Cells were lysed for Western blot analysis of BIK expression and the relative amounts of BIK are indicated on the bottom. The expression levels of ASB11 and BIK in the stable lines are shown on the bottom panel. (d) Western blot analysis of IRE1α expression and RT-qPCR analysis of XBP1 mRNA splicing in indicated HCT116 cells treated with 3 μg/ml doxorubicin or 10 μM 5-FU for 24 h. (e) RT-qPCR analysis of ASB11 and XBPls mRNA expression in HCT116 cells transfected with XBP1s and/or treated with 3 μg/ml doxorubicin for 16 h. […]
(§3) Cell extraction was performed with RIPA lysis buffer containing 50 mM Tris (pH 8.0), 0.15 M NaCl, 1% NP40, 1% sodium deoxycholate, 0.1% SDS, 1 mM PMSF, 1 µg/ml aprotinin, and 1 µg/ml leupeptin. […] Immunoprecipitation was performed and analyzed as previously described. […] The beads were washed with RIPA lysis buffer and the bound proteins were analyzed by Western blot.

BIK [4] = assay: Western blot analysis of BIK expression in HCT116 cells; settings: p53-dependent manner, FIG. 5b
Procedure: as §2, §3

BIK [5] = assay: Cycloheximide-chase analysis of BIK protein stability in HCT116 p53+/+ cells; settings: p53-proficient HCT116 cells, 10 μM 5-FU 24 h then cycloheximide; FIG. 5c
Procedure: FIG. 5. […] (a) RT-qPCR analysis of ASB11 mRNA expression in indicated HCT116 cells treated with indicated dosages of doxorubicin or 5-FU for 24 h. […] (b) Western blot analysis of BIK and ASB11 expression in indicated HCT116 cells treated as in (a). (c) HCT116 p53^+/+ cells stably expressing control or ASB11 shRNA were treated with 10 μM 5-FU for 24 h and then with cycloheximide for indicated time points. Cells were lysed for Western blot analysis of BIK expression and the relative amounts of BIK are indicated on the bottom. The expression levels of ASB11 and BIK in the stable lines are shown on the bottom panel. (d) Western blot analysis of IRE1α expression and RT-qPCR analysis of XBP1 mRNA splicing in indicated HCT116 cells treated with 3 μg/ml doxorubicin or 10 μM 5-FU for 24 h. (e) RT-qPCR analysis of ASB11 and XBPls mRNA expression in HCT116 cells transfected with XBP1s and/or treated with 3 μg/ml doxorubicin for 16 h. […] (f) Analysis of BIK ubiquitination in HCT116 cells transfected with indicated constructs and/or treated with 3 μg/ml doxorubicin for 16 h.

IRE1α = assay: Western blot analysis of IRE1α expression in HCT116 cells; settings: 3 μg/ml doxorubicin or 10 μM 5-FU, 24 h, p53-dependent manner, FIG. 5d
Procedure: as §2, §3

XBP1 mRNA splicing = assay: RT-qPCR analysis of XBP1 mRNA splicing in HCT116 cells; settings: 3 μg/ml doxorubicin or 10 μM 5-FU, 24 h, p53-dependent manner, FIG. 5d
Procedure: as §1

BIK [6] = assay: Western blot analysis of BIK levels in 293T cells
Procedure: FIG. 2. […] (d) Western blot analysis of BIK levels in indicated cells stably expressing control or ASB11 shRNAs.
Cell extraction was performed with RIPA lysis buffer containing 50 mM Tris (pH 8.0), 0.15 M NaCl, 1% NP40, 1% sodium deoxycholate, 0.1% SDS, 1 mM PMSF, 1 µg/ml aprotinin, and 1 µg/ml leupeptin. Western blot was performed with the standard protocol. For an efficient detection of BIK by Western blot, Tricine-SDS-PAGE was used. Western blot analyses of other proteins were performed with Glycine-SDS-PAGE. Immunoprecipitation was performed and analyzed as previously described. Briefly, cell lysates were incubated with primary antibody for overnight. The Pure Proteome Protein A/G Magnetic Beads (LSKMAGA/G10, EMD Millipore) were then added into cell lysates and incubated for 1.5 h. The beads were washed with RIPA lysis buffer and the bound proteins were analyzed by Western blot.

ASB11 mRNA [7] = assay: RT-qPCR analysis of ASB11 mRNA in H1299 cells treated with doxorubicin; settings: p53-transfected H1299 cells
Procedure: Total mRNA was extracted from cells using TRIZOL reagent (Invitrogen), and equal amounts of RNA were reverse transcribed to cDNA using the iScript™ cDNA Synthesis Kit (Bio-Rad). Quantitative real-time PCR was performed using the Power SYBR Green PCR Master kit (Applied Biosystems). Amplification was performed on an ABI 7500 Fast Real-Time PCR system and GAPDH was used as an internal control.

ASB11 [8] = assay: Western blot analysis of ASB11 protein expression under ER stress; settings: multiple cell lines; 10 μg/ml tunicamycin or 200 nM thapsigargin, 16 h; FIG. 4a
Procedure: FIG. 4. ER stress stimulates BIK ubiquitination and degradation through ASB11 and p97. (a) Western blot analysis of BIK and ASB11 levels in 293T cells treated with 10 μg/ml tunicamycin or 200 nM of thapsigargin for 16 h. (b) Western blot analysis of BIK levels in 293T cells treated with 10 μg/ml tunicamycin for 12 h and then with 50 μg/ml cycloheximide for indicated time periods. The relative amounts of BIK are indicated on the bottom. (c, e) Analysis of endogenous (c) or exogenous (e) BIK ubiquitination in 293T cells (c) or 293T derivatives as in FIG. 2d (e) transfected with indicated constructs and treated with tunicamycin. (d) Western blot analysis of 293T derivatives as in FIG. 2d treated with 10 μg/ml tunicamycin for 16 h. (f) Western blot analysis of BIK levels in 293T derivatives co-treated with 10 μg/ml tunicamycin and MG132 for 16 h. (g) Western blot analysis of BIK expression in 293T cells co-treated with tunicamycin and 10 μM CB-5083 for 16 h. […]
as §3

How did the “killing effect of BIKDD on TNBC cells on combined administration” value [1] turn out when `Cc1cc(=O)oc2c(C=O)c(O)ccc12` [4μ8C, 7-Hydroxy-4-methyl-2-oxo-2H-1-benzopyran-8-carboxaldehyde] was run?
Its value is “enhanced”.

`O=c1[nH]cc(F)c(=O)[nH]1` [5-FU, 5-fluorouracil] was tested. Which “ASB11 mRNA level” value (ASB11 mRNA [2]) did it give?
Its value is “reduced”.

And the ASB11 protein level (ASB11 [3])?
Its ASB11 protein level is “downregulated”.

What about the BIK protein level (BIK [4]) of the same molecule?
The BIK protein level was “upregulated”.

And the BIK protein stability (BIK [5])?
Its BIK protein stability is “increased”.

What about the IRE1a level (IRE1α) of the same molecule?
The IRE1a level was “reduced”.

What about the “XBP1 mRNA splicing” value (XBP1 mRNA splicing) of the same molecule?
The value was “reduced”.

For `Cc1cc2c(C(N)=O)cccc2n1-c1nc2c(c(NCc3ccccc3)n1)COCC2` [CB-5083], which “effect on BIK downregulation induced by ER stress or ASB11 overexpression” value (BIK [6]; 293T cells, 10 μM CB-5083, 16 h, co-treated with tunicamycin, FIG. 4g) is on record?
Its value is “abrogated”.

With `CC(C)C[C@@H](C=O)NC(=O)[C@H](CC(C)C)NC(=O)[C@H](CC(C)C)NC(=O)OCc1ccccc1` [MG132] (Cbz-Leu-Leu-Leu-aldehyde) as the molecule, how does the “effect on the decrease of BIK protein level caused by ASB11 overexpression” value (BIK [6]; 293T cells transfected with ASB11, FIG. 2b) read?
Its value is “reversed”.

`COc1cccc2c1C(=O)c1c(O)c3c(c(O)c1C2=O)C[C@@](O)(C(=O)CO)C[C@@H]3O[C@H]1C[C@H](N)[C@H](O)[C@H](C)O1` [doxorubicin] was tested. Which “ASB11 mRNA level” value (ASB11 mRNA [2]) did it give?
The value was “reduced”.

And the “ASB11 mRNA” value (ASB11 mRNA [7])?
Its value is “downregulated”.

And the ASB11 protein level (ASB11 [3])?
Its ASB11 protein level is “downregulated”.

And the BIK protein level (BIK [4])?
The BIK protein level was “upregulated”.

And the IRE1a level (IRE1α)?
The IRE1a level was “reduced”.

What about the “XBP1 mRNA splicing” value (XBP1 mRNA splicing) of the same molecule?
Its value is “reduced”.

What does the source list for `C/C=C(/C)C(=O)O[C@H]1C(C)=C2[C@H]([C@@H]1OC(=O)CCCCCCC)[C@@](C)(OC(C)=O)C[C@H](OC(=O)CCC)[C@@]1(O)[C@H]2OC(=O)[C@@]1(C)O` [thapsigargin]?
ASB11 protein expression (ASB11 [8]): elevated; BIK protein level (BIK [6]; multiple cell lines, 10 μg/ml tunicamycin or 200 nM thapsigargin, 16 h, FIG. 4a): reduced
